Data: article PMC4603724 (ACS Medicinal Chemistry Letters, 2015)

Molecular target: protein disulfide isomerase (PDI) (Homo sapiens, UniProt P07237)
Assay: 1H-15N HSQC NMR chemical shift perturbation
Assay type: binding

Chain of protein disulfide isomerase (PDI) (P07237 18-137): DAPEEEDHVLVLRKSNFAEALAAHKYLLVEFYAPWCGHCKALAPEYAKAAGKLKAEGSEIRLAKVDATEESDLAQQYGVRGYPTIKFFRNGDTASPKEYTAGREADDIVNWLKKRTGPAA

Compound: O=C1C=C2C=C[C@@H]3C[C@@]2(O1)[C@H]1CCCCN31 [IBS141, securinine]
- Kd: 758 ± 129 µM
